Columns and labels:
sweetpotato whiteflies = experiment: Test Example 2: yellow cloth material (Production Example 2), pest-controlling effect, count of adults; type: in vivo, Bemisia tabaci; conditions: 0.16 mg/cm²
Description: 0.4 Part of the insect growth regulator is dissolved in 40 parts of acetone and further 0.8 part of rape seed oil is added thereto. Thirty-one milliliters of the resulting solution is absorbed in a yellow cloth of 21 cm x 92 cm in size. Acetone is then vaporized to obtain a material for controlling pests containing 0.16 mg/cm² of the active ingredient. A material for controlling pests with pyriproxyfen as insect growth regulator was prepared according to Production Example 2. It was set at the same height as that of a container (80 cm x 112 cm x 45 cm) in which tomato having greenhouse whiteflies parasitized thereon had been planted. On the other hand, a yellow cloth containing no insect growth regulator was set as a control at a distance of about 8 m. On the predetermined day, the number of greenhouse whitefly adults parasitized on the tomato was counted. Table 1 In the same manner as in Test Example 1, the pest-controlling effect on sweetpotato whiteflies was examined.

sweetpotato whitefly [1] = experiment: Test Example 4: yellow cloth with cotton seed oil solution in net cage, hatching inhibitory effect on eggs; type: in vivo, Bemisia tabaci; conditions: after 48 hours, kidney bean
Description: Materials for controlling pests containing pyriproxyfen in amounts of 5.3 mg/cm², 2.7 mg/cm² and 0.5 mg/cm², respectively, were prepared by dissolving the corresponding amounts of pyriproxyfen in a cotton seed oil and coating every solution thus obtained onto a yellow cloth of 15 cm x 15 cm in size to allow the cloth to absorb the solution. Every cloth was set on one wall surface of a nylon net cage (30 cm x 30 cm x 30 cm). Kidney bean planted in a pot was placed at the center of the cage, and sweetpotato whitefly adults were released in the cage. After 48 hours, the hatching inhibitory effect on eggs from the adults was examined.

sweetpotato whitefly [2] = experiment: Test Example 6: spray-coated yellow Kent paper (Production Example 5) in net cage, hatching inhibition; type: in vivo, Bemisia tabaci; conditions: yellow Kent paper 15 cm x 15 cm, 1 g/m², spray-coated from acetone; eggs laid on kidney bean
Description: One part of the insect growth regulator is dissolved in 99 parts of acetone. One hundred grams of the resulting solution is spray-coated onto a square yellow Kent paper having a side of 100 cm to obtain a material for controlling pests containing 1 g/m² of the active ingredient. A material for controlling pests with pyriproxyfen as insect growth regulator prepared according to Production Example 5 was formed into a size of 15 cm x 15 cm. It was set on one wall surface of a nylon net cage of 30 cm x 30 cm x 30 cm in size. About 100 adults of sweetpotato whitefly were released in the cage together with kidney bean on which the adults had been parasitized. One day after release of the adults, a potted kidney bean having no adults parasitized thereon was set in the cage for oviposition. Among the eggs laid on the potted kidney bean until the next day, the number of unhatched eggs was counted.

sweetpotato whitefly [3] = experiment: Test Example 9: yellow Kent paper (Production Example 8) in net cage, hatching inhibition; type: in vivo, Bemisia tabaci; conditions: yellow Kent paper 15 cm x 15 cm, 1 g/m², Solvesso 200; eggs laid on kidney bean
Description: Ten parts of the insect growth regulator is dissolved in 90 parts of a mineral oil. 0.225 Gram of the resulting solution is absorbed in a square yellow Kent paper having a side of 15 cm to obtain a material for controlling pests containing 1 g/m² of the active ingredient. A material for controlling pests containing pyriproxyfen (insect growth regulator) and Solvesso 200 (mineral oil) prepared according to Production Example 8 was formed into a size of 15 cm x 15 cm. It was set on one wall surface of a nylon net cage of 30 cm x 30 cm x 30 cm in size. About 100 adults of sweetpotato whitefly were released in the cage together with kidney bean on which the adults had been parasitized. One day after release of the adults, a potted kidney bean having no adults parasitized thereon was set in the cage for oviposition. Among the eggs laid on the potted kidney bean until the next day, the number of untached eggs was counted.

greenhouse whiteflies = experiment: Test Example 10: yellow polyethylene sheet (Production Example 9) set beside tomato, count of adults; type: in vivo, Trialeurodes vaporariorum
Description: Ninety-eight parts by weight of a polyethylene resin (Sumikathene®; a registered trade mark of Sumitomo Chemical Co., Ltd.), 1 part by weight of pyriproxyfen, a juvenile hormone-like compound, and 1 part by weight of a polyethylene colored master batch for yellow coloration (SPEM 305 produced by Sumika Color Co., pigment content: 12 wt.%) are kneaded with a pressure kneader and then pelletized. The resulting pellet is extruded through an extruder equipped with a T-dies at 160° to 180°C to obtain a sheet-form material for controlling pests of 1 mm in thickness. A sheet-like material for controlling pests prepared according to Production Example 9 was formed into a size of 15 cm x 15 cm. It was set at the same height as that of a container (80 cm x 112 cm x 45 cm) in which tomato having greenhouse whiteflies parasitized thereon had been planted. On the other hand, a yellow film containing no insect growth regulator was set as a control in the same manner as in setting the above material for controlling pests. On the predetermined day, the number of greenhouse whitefly adults parasitized on the tomato was counted.

Thrips palmi = experiment: Test Example 12: blue polyethylene sheet (Production Example 10) in glass vessel with cucumber seedlings, count of adults; type: in vivo; conditions: 28° ±1°C
Description: The same procedure as in Production Example 9 is repeated except that a colored master batch for blue coloration (SPEM 510 produced by Sumika Color Co.; pigment content: 12 wt.%) replaces the colored master batch for yellow coloration. Thus, a sheet-form material for controlling pests is obtained.
Soil was placed on the bottom of a glass vessel of 70 cm x 35 cm x 35 cm in size. Three cucumber seedings, on which Thrips palmi had been parasitized, were planted at the central part of the glass vessel. After three days, the material for controlling pests prepared according to Production Example 10 was formed into a size of 15 cm x 15 cm and set at a height of 5 cm above the ground. On the other hand, the same test was carried out by setting a blue film containing no insect growth regulator, a control, in the same manner as in setting the above material for controlling pests.
On the predetermined day, the number of Thrips palmi adults parasitized on the cucumbers was counted. The tests were carried out in a room kept at 28° ±1°C.

CC(COc1ccc(Oc2ccccc2)cc1)Oc1ccccn1 (stereo not shown) [pyriproxyfen, 4-phenoxyphenyl 2-(2-pyridyloxy)propyl ether]
number of sweetpotato whitefly adults (pest-controlling effect) (sweetpotato whiteflies; 0 days elapsed after setting): 53
number of sweetpotato whitefly adults (pest-controlling effect) (sweetpotato whiteflies; 7 days elapsed after setting): 40
number of sweetpotato whitefly adults (pest-controlling effect) (sweetpotato whiteflies; 14 days elapsed after setting): 35
number of sweetpotato whitefly adults (pest-controlling effect) (sweetpotato whiteflies; 18 days elapsed after setting): 20
number of sweetpotato whitefly adults (pest-controlling effect) (sweetpotato whiteflies; 29 days elapsed after setting): 10
number of sweetpotato whitefly adults (pest-controlling effect) (sweetpotato whiteflies; 35 days elapsed after setting): 1
Hatching inhibitory rate (%) (sweetpotato whitefly [1]; Pyriproxyfen 0.5 mg/cm² on yellow cloth): 83.7%
Hatching inhibitory rate (%) (sweetpotato whitefly [1]; Pyriproxyfen 2.7 mg/cm² on yellow cloth): 98.2%
Hatching inhibitory rate (%) (sweetpotato whitefly [1]; Pyriproxyfen 5.3 mg/cm² on yellow cloth): 94.6%
Hatching inhibitory rate (%) (sweetpotato whitefly [2]): 99.0%
Hatching inhibitory rate (%) (sweetpotato whitefly [3]): 98.2%
number of greenhouse whitefly adults parasitized on the tomato (mean value per cup) (greenhouse whiteflies; 0 days elapsed after setting, yellow polyethylene sheet 1 mm, 1 part by weight pyriproxyfen, 15 cm x 15 cm): 105
number of greenhouse whitefly adults parasitized on the tomato (mean value per cup) (greenhouse whiteflies; 7 days elapsed after setting, yellow polyethylene sheet): 78
number of greenhouse whitefly adults parasitized on the tomato (mean value per cup) (greenhouse whiteflies; 14 days elapsed after setting, yellow polyethylene sheet): 75
number of greenhouse whitefly adults parasitized on the tomato (mean value per cup) (greenhouse whiteflies; 18 days elapsed after setting, yellow polyethylene sheet): 50
number of greenhouse whitefly adults parasitized on the tomato (mean value per cup) (greenhouse whiteflies; 28 days elapsed after setting, yellow polyethylene sheet): 20
number of greenhouse whitefly adults parasitized on the tomato (mean value per cup) (greenhouse whiteflies; 35 days elapsed after setting, yellow polyethylene sheet): 10
number of greenhouse whitefly adults parasitized on the tomato (mean value per cup) (greenhouse whiteflies; 42 days elapsed after setting, yellow polyethylene sheet): 3
number of Thrips palmi adults parasitized on the cucumbers (Thrips palmi; 0 days elapsed after setting, blue polyethylene sheet 15 cm x 15 cm): 3
number of Thrips palmi adults parasitized on the cucumbers (Thrips palmi; 7 days elapsed after setting, blue polyethylene sheet): 4
number of Thrips palmi adults parasitized on the cucumbers (Thrips palmi; 14 days elapsed after setting, blue polyethylene sheet): 3
number of Thrips palmi adults parasitized on the cucumbers (Thrips palmi; 21 days elapsed after setting, blue polyethylene sheet): 2
